Test results from patent US10954262B2, “Tunicamycin analogues” (Oxford University Innovation Limited, priority 2017, dated 2021).
Converted amounts (≈) assume the structure as drawn. Where two headings read alike, the source gives them in different places.

Experiments:
[1] = test system: Bacillus cereus (ATCC11778); experiment: Kirby-Bauer disc diffusion susceptibility test; type: cell-based; conditions: for zone of inhibition at 5 µg/disc: ATCC11778, 6 mm disc impregnated with 5 μg, 20 hours, 35° C., read-out: Diffusion distance (zone diameter)
Description: (§1) Bioactivity was assessed using the Kirby-Bauer disc diffusion susceptibility test. Oxoid Blank Discs were impregnated with the desired test substance. A 0.5 McFarland standard inoculum was prepared by adding 3-5 single colonies to 10 mL MH broth in a 15 mL falcon tube and standardised to 0.5 McFarland standard. The inoculum was used within 10 minutes. A sterile cotton swab was dipped in the inoculum, gently pressed against the side of the tube to remove excess liquid, and generously streaked on MH agar plate to fully cover the plate. The impregnated disc was carefully placed on the agar. The plate was incubated at 35° C. for 20 hrs overnight. A digital calliper was used to measure the zone diameter. The recorded zone diameter is an average of three zone diameters measured of one zone.
(§2) Each 6 mm disc was impregnated with 5 μg of the relevant compound (TM, A, B, C, D, or any of E1 to E7), and the diffusion zone recorded after 20 hours.
(§3) Results are shown for E2 to E7 and TM. Values quoted are zone diameters, with larger numbers indicating higher antibacterial activity.

[2] = test system: Bacillus subtilis (EC1524); experiment: Kirby-Bauer disc diffusion susceptibility test; type: cell-based; conditions: for zone of inhibition at 5 µg/disc: 6 mm disc impregnated with 5 μg, 20 hours, 35° C., read-out: Diffusion distance (zone diameter)
Description: as §1, §2, §3

[3] = test system: Bacillus subtilis (EC1524); experiment: microbe, parasite or virus in culture; type: cell-based; conditions: for MIC: MH broth, 35° C., 20-24 hours; for IC50: OD600 dose-response curve; for MBC: additional 20 hours on MH agar
[4] = test system: Bacillus cereus (ATCC11778); experiment: microbe, parasite or virus in culture; type: cell-based; conditions: for MIC: MH broth, 35° C., 20-24 hours; for IC50: OD600 dose-response curve; for MBC: additional 20 hours on MH agar
[5] = test system: Pseudomonas aeruginosa (ATCC27853); experiment: Kirby-Bauer disc diffusion susceptibility test; type: cell-based; conditions: 6 mm disc, 5 μg
Description: as §1, §2
Underlying scaffolds A, B, C and D and lipid-varied analogues E1 to E7 were assayed for potency against Pseudomonas aeruginosa (ATCC27853), according to the methods of Example 2. Results of the Kirby-Bauer disc diffusion susceptibility test conducted using Pseudomonas aeruginosa (ATCC27853) as a test organism are shown in FIG. 2 and in Table 3. MIC, MBC and IC50 values were also obtained as in Example 2.

[6] = test system: Pseudomonas aeruginosa (ATCC27853); experiment: microbe, parasite or virus in culture; type: cell-based
[7] = test system: HEK293 kidney cells; experiment: Cell proliferation assay / cell morphology (cytotoxicity); type: cell-based, human; conditions: for Minimum lethal dose: HEK293; for viable cells: human
Description: (§4) Underlying scaffolds A, B, C and D and lipid-varied analogues E1 to E7 were assayed for cytotoxicity towards human liver cells (Hep2G) and human kidney cells (HEK293).
(§5) Mammalian cells were cultured in DMEM medium supplemented with 10% heat inactivated fetal bovine serum (FBS, v/v). The cultures were maintained in a humidified incubator at 37° C. in 5% CO2/95% air. FBS was reduced to 2% for the cell proliferation assay.
(§6) In sterile 96-well plate, each well was seeded with 1×10^5 cells. The cells were then grown confluent overnight in 100 μL DMEM with 10% FBS. The medium was replenished with DMEM with 2% FBS and added vehicle control or test substance the next day. For test substance in methanol, stock was added to 25 μL of DMEM with 2% FBS or PBS and placed in a laminar flow hood to let the methanol evaporate (about 1-3 hrs). Once the methanol has evaporated, DMEM with 2% FBS was added to final volume of 100 μL of desired test concentration. […] Cells were grown for additional 24 hrs. The cell viability was determined by using a Promega CellTiter 96 AQueous One Solution Cell Proliferation Assay System following the manufacturer's protocol.

[8] = test system: HepG2 liver cells; experiment: as above; type: cell-based, human; conditions: for Minimum lethal dose: HepG2; for viable cells: human
Description: as §4, §5, §6

[9] = Single-dose PK study, intraperitoneal injection; type: in vivo; conditions: mice
Description: The initial dose was 30 mg/kg. The x-axis indicates the time in hours after the initial injection and the y-axis indicates the blood plasma concentration of TM-8 in μg/mL in the mice.
A single-dose PK study was done using 16 mice at a dose of 30 mg/kg for the TM-8 analogue, di-N-octanoyl-tunicamycin. […] This study confirmed that the formulation was suitable for injections, and the drug is stable enough in physiological conditions.

[10] = test system: Mycobacterium tuberculosis H37RV; experiment: MIC in GAST/Fe and 7H9/ADC/Tw growth medium at 1 and 2 weeks; type: cell-based; conditions: for MIC: Mycobacterium tuberculosis, H37RV

CCCCCCCC(=O)NC1C(OC2OC(C[C@@H](O)[C@H]3O[C@@H](n4ccc(=O)[nH]c4=O)[C@H](O)[C@@H]3O)C(O)C(O)[C@H]2NC(=O)CCCCCCC)OC(CO)[C@@H](O)C1O (stereo partly drawn) [Compound E3, Di-N-octanoyl-tunicamycin]
zone of inhibition at 5 µg/disc [1]: 12 mm
zone of inhibition at 5 µg/disc [2]: 16 mm
MIC [3]: 0.78 µg/mL (≈ 0.952 µM)
IC50 [3]: 0.201 µg/mL (≈ 0.246 µM)
MBC [3]: > 0.98 µg/mL
MIC [4]: 6.25 µg/mL (≈ 7.63 µM)
IC50 [4]: 0.782 µg/mL (≈ 0.955 µM)
MBC [4]: 50 µg/mL (≈ 61.1 µM)
Diffusion distance [5]: 9 mm
IC50 [6]: 46.5 µg/mL (≈ 56.8 µM)
MBC [6]: > 400 µg/mL
MIC [6]: 100 µg/mL (≈ 122 µM)
Minimum lethal dose [7]: >400 µg/mL
Minimum lethal dose [8]: >400 µg/mL
Detectability in blood plasma ([9]; 6 hours after intraperitoneal injection, 30 mg/kg): easily detectable
Stability in physiological conditions ([9]; 30 mg/kg intraperitoneal): stable enough

CCCCCCCCCCC(=O)NC1C(OC2OC(C[C@@H](O)[C@H]3O[C@@H](n4ccc(=O)[nH]c4=O)[C@H](O)[C@@H]3O)C(O)C(O)[C@H]2NC(=O)CCCCCCCCCC)OC(CO)[C@@H](O)C1O (stereo partly drawn) [Compound E6, Di-N-undecanoyl-tunicamycin]
zone of inhibition at 5 µg/disc [1]: 7 mm
zone of inhibition at 5 µg/disc [2]: 6 mm
MIC [3]: 1.56 µg/mL (≈ 1.73 µM)
IC50 [3]: 0.852 µg/mL (≈ 0.943 µM)
MBC [3]: > 6.25 µg/mL
MIC [4]: 0.78 µg/mL (≈ 0.864 µM)
IC50 [4]: 0.0878 µg/mL (≈ 0.0972 µM)
MBC [4]: 25 µg/mL (≈ 27.7 µM)
Diffusion distance [5]: 12 mm
IC50 [6]: 63.2 µg/mL (≈ 69.9 µM)
MBC [6]: 400 µg/mL (≈ 443 µM)
MIC [6]: 100 µg/mL (≈ 111 µM)
1-week MIC [10]: 2.8 µg/mL
2-week MIC [10]: 2.8 µg/mL
MIC ([10]; 168 h, read-out: 1-week MIC): 5.6 µg/mL (≈ 6.2 µM)
MIC ([10]; 336 h, read-out: 2-week MIC): 5.6 µg/mL (≈ 6.2 µM)
Minimum lethal dose [7]: >400 µg/mL
viable cells [7]: > 75%
Minimum lethal dose [8]: >400 µg/mL
viable cells [8]: > 75%

CCCCCCCCCC(=O)NC1C(OC2OC(C[C@@H](O)[C@H]3O[C@@H](n4ccc(=O)[nH]c4=O)[C@H](O)[C@@H]3O)C(O)C(O)[C@H]2NC(=O)CCCCCCCCC)OC(CO)[C@@H](O)C1O (stereo partly drawn) [Compound E5, Di-N-decanoyl-tunicamycin]
zone of inhibition at 5 µg/disc [1]: 9 mm
zone of inhibition at 5 µg/disc [2]: 10 mm
MIC [3]: 0.39 µg/mL (≈ 0.446 µM)
IC50 [3]: 0.114 µg/mL (≈ 0.13 µM)
MBC [3]: > 0.39 µg/mL
MIC [4]: 0.39 µg/mL (≈ 0.446 µM)
IC50 [4]: 0.0461 µg/mL (≈ 0.0527 µM)
MBC [4]: 12.5 µg/mL (≈ 14.3 µM)
Diffusion distance [5]: 12 mm
IC50 [6]: 53.5 µg/mL (≈ 61.1 µM)
MBC [6]: 400 µg/mL (≈ 457 µM)
MIC [6]: 100 µg/mL (≈ 114 µM)
Minimum lethal dose [7]: >400 µg/mL
viable cells [7]: > 75%
Minimum lethal dose [8]: >400 µg/mL
viable cells [8]: > 75%

CC(C)=CCC[C@H](C)CC(=O)NC1C(OC2OC(C[C@@H](O)[C@H]3O[C@@H](n4ccc(=O)[nH]c4=O)[C@H](O)[C@@H]3O)C(O)C(O)[C@H]2NC(=O)C[C@@H](C)CCC=C(C)C)OC(CO)[C@@H](O)C1O (stereo partly drawn) [Compound E1, Di-N-citronoyl-tunicamycin]
MIC [3]: 6.25 µg/mL (≈ 7.18 µM)
IC50 [3]: 0.415 µg/mL (≈ 0.476 µM)
MBC [3]: > 100 µg/mL
MIC [4]: 100 µg/mL (≈ 115 µM)
IC50 [4]: 6.29 µg/mL (≈ 7.22 µM)
MBC [4]: > 200 µg/mL
IC50 [6]: 70.3 µg/mL (≈ 80.7 µM)
MBC [6]: > 400 µg/mL
MIC [6]: 200 µg/mL (≈ 230 µM)
Minimum lethal dose [7]: >400 µg/mL
viable cells [7]: > 75%
Minimum lethal dose [8]: >400 µg/mL
viable cells [8]: > 75%

CCCCCCCCC(=O)NC1C(OC2OC(C[C@@H](O)[C@H]3O[C@@H](n4ccc(=O)[nH]c4=O)[C@H](O)[C@@H]3O)C(O)C(O)[C@H]2NC(=O)CCCCCCCC)OC(CO)[C@@H](O)C1O (stereo partly drawn) [Compound E4, Di-N-nonanoyl-tunicamycin]
zone of inhibition at 5 µg/disc [1]: 13 mm
zone of inhibition at 5 µg/disc [2]: 16 mm
MIC [3]: 0.024 µg/mL (≈ 0.0283 µM)
IC50 [3]: 0.0146 µg/mL (≈ 0.0172 µM)
MBC [3]: > 0.06 µg/mL
MIC [4]: 0.78 µg/mL (≈ 0.921 µM)
IC50 [4]: 0.0723 µg/mL (≈ 0.0854 µM)
MBC [4]: 25 µg/mL (≈ 29.5 µM)
Diffusion distance [5]: 13 mm
IC50 [6]: 55 µg/mL (≈ 64.9 µM)
MBC [6]: 400 µg/mL (≈ 472 µM)
MIC [6]: 100 µg/mL (≈ 118 µM)
MIC lower than naturally occurring tunicamycin TM ([10]; in some cases): approximately 5 fold
Minimum lethal dose [7]: >400 µg/mL
viable cells [7]: > 75%
Minimum lethal dose [8]: >400 µg/mL
viable cells [8]: > 75%

CC(=O)NC1C(O)[C@H](O)C(CO)O[C@@H]1OC1O[C@H](C[C@@H](O)[C@@H]2O[C@@H](n3ccc(=O)[nH]c3=O)[C@H](O)[C@@H]2O)C(O)C(O)[C@H]1NC(C)=O (stereo partly drawn) [C, α-D-N-acetylglucosamine-(1″-11′)-N-acetyl Tunicamyl Uracil]
Antibacterial activity in disc diffusion test ([1]; 5 μg per disc): completely inactive
Antibacterial activity in disc diffusion test ([2]; 5 μg per disc): completely inactive
